# Source: PubChem BioAssay (NCI)
# Several values for one entry are separate records, joined by “and”; a condition that tells them apart may be missing. Identical values can stand only once.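 Step 1: Grow cells in 96-well plates. Step 2: Expose to compound for 48 hours at 5 concentrations. Step 3: Interpolate endpoints linearly; if unreached, use highest concentration. The concentration for 50% growth inhibition is given as GI50. TGI: concentration producing complete growth inhibition.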
# Assays:
# Experiment in all cases: inhibition of tumour cell growth, NCI panel, 48 h
# HCC-2998 colon = tested on: HCC-2998 colon
# CCRF-CEM leukemia = tested on: CCRF-CEM leukemia
# 786-0 renal = tested on: 786-0 renal
# SN12C renal = tested on: SN12C renal
# RPMI-8226 leukemia = tested on: RPMI-8226 leukemia
# MOLT-4 leukemia = tested on: MOLT-4 leukemia
# HOP-62 NSCLC = tested on: HOP-62 NSCLC
# OVCAR-5 ovarian = tested on: OVCAR-5 ovarian
# COLO 205 colon = tested on: COLO 205 colon
# UACC-62 melanoma = tested on: UACC-62 melanoma
# SF-295 CNS = tested on: SF-295 CNS
# OVCAR-8 ovarian = tested on: OVCAR-8 ovarian
# HS 578T breast = tested on: HS 578T breast
# HT29 colon = tested on: HT29 colon
# ACHN renal = tested on: ACHN renal
# SNB-75 CNS = tested on: SNB-75 CNS
# SNB-19 CNS = tested on: SNB-19 CNS
# KM12 colon = tested on: KM12 colon
# K-562 leukemia = tested on: K-562 leukemia
# HCT-116 colon = tested on: HCT-116 colon
# PC-3 prostate = tested on: PC-3 prostate
# A498 renal = tested on: A498 renal
# TK-10 renal = tested on: TK-10 renal
# RXF 393 renal = tested on: RXF 393 renal
# SW-620 colon = tested on: SW-620 colon
# OVCAR-4 ovarian = tested on: OVCAR-4 ovarian
# MCF7 breast = tested on: MCF7 breast
# SK-MEL-5 melanoma = tested on: SK-MEL-5 melanoma
# MDA-MB-435 = tested on: MDA-MB-435
# SF-268 CNS = tested on: SF-268 CNS
# HL-60(TB) leukemia = tested on: HL-60(TB) leukemia
# OVCAR-3 ovarian = tested on: OVCAR-3 ovarian
# MALME-3M melanoma = tested on: MALME-3M melanoma
# HOP-92 NSCLC = tested on: HOP-92 NSCLC
# NCI-H23 lung = tested on: NCI-H23 lung
# SK-MEL-28 melanoma = tested on: SK-MEL-28 melanoma
# UACC-257 melanoma = tested on: UACC-257 melanoma
# MDA-MB-231 breast = tested on: MDA-MB-231 breast
# T-47D breast = tested on: T-47D breast
# U251 CNS = tested on: U251 CNS
# HCT-15 colon = tested on: HCT-15 colon
# NCI-H226 lung = tested on: NCI-H226 lung
# UO-31 renal = tested on: UO-31 renal
# CAKI-1 renal = tested on: CAKI-1 renal
# LOX IMVI melanoma = tested on: LOX IMVI melanoma
# SF-539 CNS = tested on: SF-539 CNS
# SK-MEL-2 melanoma = tested on: SK-MEL-2 melanoma
# IGROV1 ovarian = tested on: IGROV1 ovarian
# NCI-H460 lung = tested on: NCI-H460 lung
# M14 melanoma = tested on: M14 melanoma
# NCI/ADR-RES ovarian = tested on: NCI/ADR-RES ovarian
# BT-549 breast = tested on: BT-549 breast
# EKVX NSCLC = tested on: EKVX NSCLC
# SK-OV-3 ovarian = tested on: SK-OV-3 ovarian
# A549 NSCLC = tested on: A549 NSCLC
# SR leukemia = tested on: SR leukemia
# NCI-H522 lung = tested on: NCI-H522 lung
# DU-145 prostate = tested on: DU-145 prostate
smiles,measurement,setting,value
CN(C)Cc1c(O)ccc2c1c1c(n2C)C(=O)c2ccccc2C1=O,TGI,HCC-2998 colon,13.9 µM
same,TGI,CCRF-CEM leukemia,> 100 µM
same,TGI,786-0 renal,> 100 µM
same,TGI,SN12C renal,> 100 µM
same,TGI,RPMI-8226 leukemia,> 100 µM
same,TGI,MOLT-4 leukemia,> 100 µM
same,TGI,HOP-62 NSCLC,> 100 µM
same,TGI,OVCAR-5 ovarian,74.4 µM
same,TGI,COLO 205 colon,40 µM
same,TGI,UACC-62 melanoma,18.2 µM
same,TGI,SF-295 CNS,84.6 µM
same,TGI,OVCAR-8 ovarian,> 100 µM
same,TGI,HS 578T breast,> 100 µM
same,TGI,HT29 colon,5.19 µM
same,TGI,ACHN renal,> 100 µM
same,TGI,SNB-75 CNS,51.8 µM
same,TGI,SNB-19 CNS,> 100 µM
same,TGI,KM12 colon,23.9 µM
same,TGI,K-562 leukemia,> 100 µM
same,TGI,HCT-116 colon,> 100 µM
same,TGI,PC-3 prostate,32.7 µM
same,TGI,A498 renal,14.7 µM
same,TGI,TK-10 renal,50.7 µM
same,TGI,RXF 393 renal,81.5 µM
same,TGI,SW-620 colon,> 100 µM
same,TGI,OVCAR-4 ovarian,32.3 µM
same,TGI,MCF7 breast,> 100 µM
same,TGI,SK-MEL-5 melanoma,23.1 µM
same,TGI,MDA-MB-435,21.1 µM
same,TGI,SF-268 CNS,> 100 µM
same,TGI,HL-60(TB) leukemia,> 100 µM
same,TGI,OVCAR-3 ovarian,48.4 µM
same,TGI,MALME-3M melanoma,15.5 µM
same,TGI,HOP-92 NSCLC,> 100 µM
same,TGI,NCI-H23 lung,27.4 µM
same,TGI,SK-MEL-28 melanoma,20 µM
same,TGI,UACC-257 melanoma,23.9 µM
same,TGI,MDA-MB-231 breast,> 100 µM
same,TGI,T-47D breast,> 100 µM
same,TGI,U251 CNS,> 100 µM
same,TGI,HCT-15 colon,> 100 µM
same,TGI,NCI-H226 lung,38.1 µM
same,TGI,UO-31 renal,37.5 µM
same,TGI,CAKI-1 renal,70.3 µM
same,TGI,LOX IMVI melanoma,18.6 µM
same,TGI,SF-539 CNS,> 100 µM
same,TGI,SK-MEL-2 melanoma,24.8 µM
same,TGI,IGROV1 ovarian,85.2 µM
same,TGI,NCI-H460 lung,> 100 µM
same,TGI,M14 melanoma,> 100 µM
same,TGI,NCI/ADR-RES ovarian,18.3 µM
same,TGI,BT-549 breast,42.1 µM
same,TGI,EKVX NSCLC,> 100 µM
same,TGI,SK-OV-3 ovarian,> 100 µM
same,TGI,A549 NSCLC,> 100 µM
same,TGI,SR leukemia,> 100 µM
same,TGI,NCI-H522 lung,20.8 µM
same,TGI,DU-145 prostate,> 100 µM
CC1=C/C=C/C(=O)O[C@@H]([C@H](C)[C@H](O)[C@@H](C)NC(=O)C(C)C)[C@H](C)/C=C/C(C)=C/[C@H]2C=CCC[C@@]2(C)\C=C\1,GI50,HCC-2998 colon,0.561 µM and 4.67 µM
same,TGI,HCC-2998 colon,23.5 µM
same,GI50,CCRF-CEM leukemia,5.17 µM and 2.26 µM
same,TGI,CCRF-CEM leukemia,17.6 µM
same,GI50,786-0 renal,0.506 µM and 0.147 µM
same,TGI,786-0 renal,8.06 µM
same,GI50,SN12C renal,0.806 µM and 0.275 µM
same,TGI,SN12C renal,8.46 µM
same,GI50,RPMI-8226 leukemia,0.705 µM and 0.703 µM
same,TGI,RPMI-8226 leukemia,12.3 µM
same,GI50,MOLT-4 leukemia,8.41 µM
same,TGI,MOLT-4 leukemia,31.6 µM
same,GI50,HOP-62 NSCLC,2.13 µM and 4.68 µM
same,TGI,HOP-62 NSCLC,12.5 µM
same,GI50,OVCAR-5 ovarian,8.43 µM and 5.43 µM
same,TGI,OVCAR-5 ovarian,14.3 µM
same,GI50,COLO 205 colon,0.322 µM and 0.189 µM
same,TGI,COLO 205 colon,7.33 µM
same,GI50,UACC-62 melanoma,0.418 µM and 0.62 µM
same,TGI,UACC-62 melanoma,8.98 µM
same,GI50,SF-295 CNS,0.0264 µM
same,TGI,SF-295 CNS,7.5 µM
same,GI50,OVCAR-8 ovarian,3.17 µM and 0.989 µM
same,TGI,OVCAR-8 ovarian,34.2 µM
same,GI50,HS 578T breast,6.73 µM and 1.9 µM
same,TGI,HS 578T breast,> 42.3 µM
same,GI50,HT29 colon,0.233 µM and 0.0595 µM
same,TGI,HT29 colon,6.85 µM
same,GI50,ACHN renal,0.136 µM
same,TGI,ACHN renal,6.98 µM
same,TGI,SNB-75 CNS,> 42.3 µM
same,GI50,SNB-19 CNS,2.01 µM and 0.736 µM
same,TGI,SNB-19 CNS,25.9 µM
same,GI50,KM12 colon,0.518 µM and 0.343 µM
same,TGI,KM12 colon,> 42.3 µM
same,GI50,K-562 leukemia,0.559 µM and 0.565 µM
same,TGI,K-562 leukemia,36.9 µM
same,GI50,HCT-116 colon,0.0446 µM and 0.0232 µM
same,TGI,HCT-116 colon,6.3 µM
same,GI50,PC-3 prostate,0.654 µM and 0.223 µM
same,TGI,PC-3 prostate,13.2 µM
same,GI50,A498 renal,6.03 µM and 5.25 µM
same,TGI,A498 renal,32.8 µM
same,GI50,TK-10 renal,6.12 µM
same,TGI,TK-10 renal,19 µM
same,TGI,RXF 393 renal,8.69 µM
same,GI50,SW-620 colon,0.705 µM and 0.303 µM
same,TGI,SW-620 colon,8.9 µM
same,GI50,OVCAR-4 ovarian,6.47 µM
same,TGI,OVCAR-4 ovarian,21.9 µM
same,GI50,MCF7 breast,0.0746 µM and 0.0382 µM
same,TGI,MCF7 breast,23.7 µM
same,GI50,SK-MEL-5 melanoma,0.0634 µM and 0.0202 µM
same,TGI,SK-MEL-5 melanoma,0.81 µM and 0.812 µM
same,GI50,MDA-MB-435,0.0335 µM and 0.0165 µM
same,TGI,MDA-MB-435,6.43 µM
same,TGI,SF-268 CNS,17.7 µM
same,GI50,HL-60(TB) leukemia,0.744 µM and 0.747 µM
same,TGI,HL-60(TB) leukemia,9.12 µM and 13.7 µM
same,GI50,OVCAR-3 ovarian,2.77 µM and 1.77 µM
same,TGI,OVCAR-3 ovarian,9.33 µM
same,GI50,MALME-3M melanoma,2.01 µM and 1.71 µM
same,TGI,MALME-3M melanoma,8.4 µM
same,GI50,HOP-92 NSCLC,0.059 µM and 0.0545 µM
same,TGI,HOP-92 NSCLC,6.5 µM
same,GI50,NCI-H23 lung,1.75 µM and 1.49 µM
same,TGI,NCI-H23 lung,15.2 µM
same,GI50,SK-MEL-28 melanoma,0.469 µM and 0.376 µM
same,TGI,SK-MEL-28 melanoma,8.48 µM
same,TGI,UACC-257 melanoma,13.3 µM
same,GI50,MDA-MB-231 breast,0.0186 µM
same,TGI,MDA-MB-231 breast,0.106 µM
same,GI50,T-47D breast,0.112 µM and 0.132 µM
same,TGI,T-47D breast,36.6 µM
same,GI50,U251 CNS,0.0759 µM and 0.0702 µM
same,TGI,U251 CNS,7.18 µM
same,GI50,HCT-15 colon,0.231 µM and 0.275 µM
same,TGI,HCT-15 colon,9.15 µM
same,GI50,NCI-H226 lung,2.48 µM and 0.582 µM
same,TGI,NCI-H226 lung,10 µM
same,GI50,UO-31 renal,0.244 µM and 0.396 µM
same,TGI,UO-31 renal,7.85 µM
same,GI50,LOX IMVI melanoma,0.0479 µM and 0.0688 µM
same,TGI,LOX IMVI melanoma,0.307 µM and 0.178 µM
same,GI50,SF-539 CNS,0.0586 µM and 0.0588 µM
same,TGI,SF-539 CNS,5.3 µM
same,GI50,SK-MEL-2 melanoma,6.98 µM
same,TGI,SK-MEL-2 melanoma,20.4 µM
same,GI50,IGROV1 ovarian,0.603 µM and 0.189 µM
same,TGI,IGROV1 ovarian,10.7 µM
same,GI50,NCI-H460 lung,0.526 µM and 0.287 µM
same,TGI,NCI-H460 lung,26.4 µM
same,GI50,M14 melanoma,0.0377 µM and 0.0293 µM
same,TGI,M14 melanoma,0.216 µM and 0.125 µM
same,GI50,NCI/ADR-RES ovarian,1.43 µM and 0.879 µM
same,TGI,NCI/ADR-RES ovarian,27.6 µM
same,GI50,BT-549 breast,0.836 µM and 1.13 µM
same,TGI,BT-549 breast,16.3 µM
same,GI50,EKVX NSCLC,1.65 µM and 3.94 µM
same,TGI,EKVX NSCLC,25.1 µM
same,GI50,SK-OV-3 ovarian,3.09 µM and 0.872 µM
same,TGI,SK-OV-3 ovarian,> 42.3 µM
same,GI50,A549 NSCLC,1.83 µM and 0.328 µM
same,TGI,A549 NSCLC,13.2 µM
same,GI50,SR leukemia,0.41 µM and 0.191 µM
same,TGI,SR leukemia,5.58 µM
same,GI50,NCI-H522 lung,4.97 µM and 2.06 µM
same,TGI,NCI-H522 lung,13.6 µM
same,GI50,DU-145 prostate,4.64 µM and 0.652 µM
same,TGI,DU-145 prostate,8.98 µM
